Reference: article PMC11979685, “Synthesis of Derivatives of the Antibiotic Albicidin: The N‐Terminal Fragment as Key to Control Potency and Resistance Mediated by the Binding Protein AlbA” (Chemistry (Weinheim an Der Bergstrasse, Germany), 2025)
Converted amounts (≈) assume the structure as drawn.

Assays:
Bacillus subtilis DSM 10 = assay: MIC determination (broth microdilution); assay type: cell-based; conditions: DSM10, read-out: MIC B. sub.
Protocol: (§1) After completing the syntheses, the antibacterial activity of A‐variations 4–24 was assessed by determination of MIC values against a basic set of gram‐negative and gram‐positive bacteria (Table 1). The monocyclic derivatives 4–8 featuring a cyano‐, trifluoromethyl‐, methoxy‐ and fluoro‐ substituent in para‐position were very active against the gram–negative E. coli and S. typhimurium strains with MIC values in the same range as 3rd Gen albicidin 3 or ciprofloxacin which is the gold standard for gyrase inhibitors. […] These findings are in agreement with previous studies showing good activities for cyano, trifluoromethyl, methoxy and fluoro substituents in the para‐position of different aromatic rings in the building block A.[12, 13] The activity of the monocyclic derivatives 4–8 against the gram‐positive strains B. subtilis and M. luteus were similar but slightly less pronounced compared to the lead structure 3.
(§2) 1.1 Determination of Minimal Inhibitory Concentrations (MIC)
(§3) Minimal inhibitory concentration (MIC) against selected bacterial strains values were determined according to the ninth edition of the Approved Standard M07-A9.[1] 20 μL of cryo stocks of bacterial strains were suspended in 20 mL LB medium (Lysogeny broth: 10 g/L peptone, 5 g/L yeast extract, 5 g/L NaCl). Following incubation overnight at 37°C, 200 rpm, the test inoculum was adjusted by 0.5 McFarland Standard in cation adjusted Mueller-Hinton broth (BBLTM Mueller-Hinton Broth II, Becton, Dickinson and Company, New Jersey, USA) to approximately 1x10^6 CFU mL-1. 95 μL of the bacterial inoculum were applied per well of a 96-well plate. Albicidin and albicidin derivatives 3−24 were dissolved in DMSO (100%) to an initial concentration of 2560 μg/mL and serially diluted in DMSO (100%). Initial solution and serial dilutions of Ciprofloxacin were prepared in 0.1 N HCL, respectively. 5 μL of each antibiotic dilution were added to the microdilution tray to reach albicidin concentrations of 128 μg/mL to 0.016 μg/mL per well. One row of each well plate served as a growth control without antibiotic substances and another row of the microdilution tray served as sterility control (only MHB II - media). The antimicrobial effect of the solvent (DMSO) was tested by adding 5 μL DMSO to several wells. Purity check and cell titer control were performed according to International S tandard M07-A9 on Mueller-Hinton II Agar (Mueller Hinton II Broth, 15 g/L agar-agar). Both microdilution trays and agar plates were incubated at 30−37°C for 16 h and subsequently analyzed for growth inhibition by naked eye. The following primary panel of microorganisms were purchased from German Collection of Microorganisms and Cell Cultures (DSMZ):
(§4) Escherichia coli DSM 1116
(§5) Micrococcus luteus DSM 1790
(§6) Mycobacterium phlei DSM 750
(§7) Salmonella typhimurium TA100 was kindly provided by Prof. Dr. Vera Meyer (Technische Universität Berlin). […]
(§8) was purchased as part of the single gene knockout library of E. coli K12 BW25113 (Keio collection) from Horizon Discovery group plc (Cambridge, UK).

E. coli BW25113 = assay: MIC determination (broth microdilution); assay type: cell-based; conditions: Escherichia coli, BW25113; read-out: MIC E. coli BW25113
Protocol: as §1, §2, §3, §4, §5, §6, §7, §8

E. coli DSM1116 = assay: MIC determination (broth microdilution); assay type: cell-based; conditions: Escherichia coli, DSM1116; read-out: MIC E. coli DSM1116
Protocol: as §1, §2, §3, §4, §5, §6, §7, §8

[1] = system: Micrococcus luteus DSM 1790; assay: MIC determination (broth microdilution); assay type: cell-based; conditions: DSM1790, read-out: MIC M. luteus
Protocol: as §1, §2, §3, §4, §5, §6, §7, §8

[2] = system: Mycobacterium phlei DSM 750; assay: MIC determination (broth microdilution); assay type: cell-based; conditions: Mycolicibacterium phlei, DSM750; read-out: MIC M. phlei
Protocol: as §1, §2, §3, §4, §5, §6, §7, §8

[3] = system: Salmonella typhimurium TA100; assay: MIC determination (broth microdilution); assay type: cell-based; conditions: Salmonella enterica, read-out: MIC S. typh.
Protocol: as §1, §2, §3, §4, §5, §6, §7, §8

E. coli = assay: MIC against E. coli in presence of 50 % human serum; assay type: cell-based; conditions: Escherichia coli; E. coli in presence of 50 % human serum; read-out: MICEc 50%HS
E. coli DNA gyrase = E. coli DNA gyrase (Escherichia coli, UniProt P0AES4); assay: E. coli gyrase DNA cleavage assay; assay type: biochemical; set-up: key to Gyrase inhibition strong+ / weak −: + strong inhibition; − weak inhibition in comparison to compound 16; conditions: for Gyrase inhibition strong+ / weak −: qualitative DNA cleavage assay at 1 μM and 10 μM, in comparison to compound 16
Sequence of E. coli DNA gyrase (P0AES4 whole entry): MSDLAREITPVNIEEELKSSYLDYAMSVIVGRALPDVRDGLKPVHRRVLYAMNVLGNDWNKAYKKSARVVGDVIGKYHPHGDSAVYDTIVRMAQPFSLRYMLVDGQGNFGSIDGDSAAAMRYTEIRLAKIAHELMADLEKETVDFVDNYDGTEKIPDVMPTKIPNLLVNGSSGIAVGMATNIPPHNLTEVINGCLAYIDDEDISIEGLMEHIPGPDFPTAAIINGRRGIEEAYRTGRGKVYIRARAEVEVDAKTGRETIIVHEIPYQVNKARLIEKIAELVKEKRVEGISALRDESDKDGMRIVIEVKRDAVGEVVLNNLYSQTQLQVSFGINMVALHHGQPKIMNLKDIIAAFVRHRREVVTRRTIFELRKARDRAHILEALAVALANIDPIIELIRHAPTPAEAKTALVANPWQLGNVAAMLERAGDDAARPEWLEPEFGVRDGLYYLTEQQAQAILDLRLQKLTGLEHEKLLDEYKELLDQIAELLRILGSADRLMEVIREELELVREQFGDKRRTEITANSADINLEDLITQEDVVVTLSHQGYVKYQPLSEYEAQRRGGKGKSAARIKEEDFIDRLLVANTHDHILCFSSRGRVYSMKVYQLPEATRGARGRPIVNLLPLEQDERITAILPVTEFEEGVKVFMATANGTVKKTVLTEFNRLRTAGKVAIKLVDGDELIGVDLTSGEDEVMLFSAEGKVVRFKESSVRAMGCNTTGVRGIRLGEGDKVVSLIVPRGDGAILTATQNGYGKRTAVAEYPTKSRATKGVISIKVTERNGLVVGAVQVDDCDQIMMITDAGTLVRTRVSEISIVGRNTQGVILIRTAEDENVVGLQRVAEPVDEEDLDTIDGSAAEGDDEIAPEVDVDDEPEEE
Protocol: The target activity of the synthesized derivatives was investigated using a DNA cleavage assay with purified and enzymatically active E. coli DNA gyrase[8] (see SI). In this assay, albicidin‐stabilized complexes of gyrase and plasmid DNA are trapped, and subsequently denatured and deproteinated to reveal DNA linearized by gyrase. […] For the best performing compounds, which were able to fully stabilize the cleavage complex at a concentration of 1 μM, the concentrations at half‐maximum cleavage (CC50) were determined (Figure 3).
1.2 Escherichia coli Gyrase Cleavage Inhibition Assay
E. coli gyrase cleavage assays were executed by setting up a master mix including 0.25 µg relaxed plasmid (pBR322) in 35 mM Tris-HCl (pH 7.5), 24 mM KCl, 4 mM MgCl2, 2 mM dithithreitol (DTT), 1.8 mM spermidine, 1 mM ATP, 6.5% (wt/vol) glycerol and 0.1 mg/ml bovine serum albumin per reaction.
Of this stock solution, 13.2 µL was aliquoted for each reaction into 1.5 mL Eppendorf tubes and supplemented with 0.3 µL of the appropriate compound dilution or DMSO with a […] DMSO concentration of 2% per reaction. The reactions were started with 1.5 µL of 50 nM (pre-screening) or 40 nM (IC50 determinations) wt E. coli gyrase in dilution buffer (50 mM Tris-HCl (pH 7.5), 100 mM KCl, 2 mM DTT, 1 mM EDTA, and 50% (wt/vol) glycerol) for a […] volume of 15 µL. Reactions were incubated at 37°C for 30 minutes before addition of 1.5 µL 0.2% (wt/vol) SDS and 0.75 µL proteinase K (0.2 mg/mL) and further incubation at 37°C for 30 minutes to trap cleavage complexes. Reactions were stopped with 15 µL chloroform:isoamyl alcohol (24: 1 v/v) and 15 µL of STEB (40% (wt/vol) sucrose, […] Tris-Cl pH 8, 10 mM EDTA, 0.5 mg/mL bromophenol blue). After brief vortexing and centrifugation at 2,300g for 5 min, 15 µL of the aqueous phase was loaded onto 1% (wt/vol) agarose in TAE (Tris-acetate […] and EDTA […]) gels supplemented with 10 µg/mL ethidium bromide.
The gels were run at 85 V for 2 hours.
DNA was visualized (602/50, UV Trans, auto optimal exposure) with a ChemiDoc MP (Bio-Rad Laboratories Inc., equipped with ImageLab Touch Software v2.0.0.27) and the percentage of cleaved DNA relative to the total amount of DNA per lane was determined with ImageJ software.[2] IC50 curves were generated in GraphPad Prism (v10.0.0) using the non-linear regression curve fit variable slope with four parameters and least squares regression.

[4] = Reverse-phase HPLC retention time as estimate of lipophilicity; assay type: physicochemical; conditions: indicator of lipophilicity
Text: As mentioned before, albicidin 1 is a rather hydrophobic compound and improving its aqueous solubility is desirable. The lipophilicity of drug molecules is commonly characterized by the octanol/water partition coefficient (logP). An alternative approach relies on the correlation between lipophilicity and the retention time (Rt) on a reverse‐phase HPLC column.[31] This approach works well if structurally related compounds are compared as is the case for this SAR study. Rt was thus used to estimate the hydrophilicity of albicidin 1 and its derivatives 2–24 (Table 1).[32]

E. coli DSM 1116 = assay: Qualitative growth inhibition assay in presence of AlbAS; assay type: cell-based, Escherichia coli
Protocol: Finally, we investigated if synthetic variations of building block A are able to evade the effects of the resistance protein AlbA. Therefore, we carried out a qualitative growth inhibition assay with derivatives 4–24 in presence of an equimolar amount of purified AlbAS. After incubation of the cultures overnight, the growth of the bacteria was evaluated. The ability of AlbAS to sufficiently sequester an albicidin derivative from the supernatant allowed E. coli cells to accumulate in a visible cell pellet. Second, we performed a quantitative transcription‐activation reporter assay[22] to assess transcriptional regulation by AlbAL. The promoter sequence pAlbA was inserted into a reporter vector that encodes the ilux luminescence cassette.[22] The luminescence signals elicited by ligand binding of synthetic variations to AlbAL was compared and normalized to the signal induced by 2nd Gen albicidin 2 and are hereby referred to as relative transcription activation (TA^%). The combination of both assays prompted us to categorize the experimental outcomes (Figure 4) in four groups:
Figure 4 Characterization of AlbA resistance against derivatives 2, 4–24. GIA: Qualitative growth inhibition assay against E. coli DSM 1116. (−): Derivative unable to inhibit the growth of E. coli in presence of AlbAS. (+): Derivative inhibits growth of E. coli in presence of AlbAS. […] For details see SI Figure 9. Transcription activation (TA) assay: luminescence elicited by 2nd Gen albicidin 2 from the TA assay was normalized to 100 % and the luminescence signal of tested derivatives provided: relative luminescence [%]=luminescence [derivative]/luminescence [2]×100 %. Green bars indicate low relative luminescence (<40 %) and red bars indicate high relative luminescence (>50 %). Error bars show the standard deviations of triplicate measurements. TEXT PRINTED IN THE PICTURE: 2: E. coli inhibition +AlbA: − | 4: E. coli inhibition +AlbA: + | 9: E. coli inhibition +AlbA: + | 11: E. coli inhibition +AlbA: + | 12: E. coli inhibition +AlbA: + | 13: E. coli inhibition +AlbA: ~ | 14: E. coli inhibition +AlbA: − | 16: E. coli inhibition +AlbA: − | 17: E. coli inhibition +AlbA: − | 18: E. coli inhibition +AlbA: − | 19: E. coli inhibition +AlbA: − | 20: E. coli inhibition +AlbA: + | 21: E. coli inhibition +AlbA: − | 22: E. coli inhibition +AlbA: − | 23: E. coli inhibition +AlbA: − | 24: E. coli inhibition +AlbA: − […]
1.3 Resistance assessment against AlbA
E. coli strain DSM 1116 was used for all susceptibility testing. E. coli BL21 Star (DE3) cells (Invitrogen) were used for protein expression. LB medium (Lysogeny broth: 10 g/L peptone, 5 g/L yeast extract, 5 g/L NaCl) was used as broth or in agar plates for all experiments. Incubation steps took place at 37°C and 180 rpm shaking if not stated otherwise. Throughout the study, 2nd Gen albicidin 2 was used as albicidin standard due to its better stability, availability and similar activity compared to natural albicidin in presence of resistance factors.[3,4]
AlbA expression and purification
N-terminally His-tagged AlbA was expressed using a pET28a vector as described previously.[5] In brief, E. coli BL21(DE3) cells were transformed with pET28-AlbA plasmid and grown in LB medium with kanamycin. LB broth supplemented with 50 µg/mL kanamycin was inoculated from over-night cultures and grown at 37°C until an OD600 of 0.6 was reached. After induction with 0.2 mM isopropyl β-D-1-thiogalactopyranoside (IPTG) the proteins were expressed at 18°C for 20 h. The cells were harvested by centrifugation (4,000 x G, 20 min), resuspended in lysis buffer (50 mM Tris, pH 8.0, 500 mM NaCl, 10% glycerol) and processed in a cell disruptor (Constant Systems Ltd) at 25 kPsi before centrifugation at 50,000 x G, at 4°C for 45 min. The lysate was incubated with Pure Cube Ni-NTA agarose (Cube Biotech, Germany) at 4°C for 20 min while shaking. The slurry was transferred to empty gravity-flow […]

Row | Compound | MIC (Bacillus subtilis DSM 10) [µg/mL] | MIC (E. coli BW25113) [µg/mL] | MIC (E. coli DSM1116) [µg/mL] | MIC [1] [µg/mL] | MIC [2] [µg/mL] | MIC [3] [µg/mL] | MIC (E. coli) [µg/mL] | Gyrase inhibition strong+ / weak − (E. coli DNA gyrase) | Rt (retention time) [4] [min] | CC50 (E. coli DNA gyrase; E. coli gyrase DNA cleavage, read-out: CC50 (concentration at half-maximum cleavage)) [nM] | GIA: E. coli inhibition +AlbA (E. coli DSM 1116; E. coli DSM 1116, 10 µM compound with equimolar AlbAS) | bioactivity in presence of AlbAS (in words) (E. coli DSM 1116; E. coli, equimolar purified AlbAS)
1 | COc1ccc(C(=O)Nc2ccc(C(=O)N[C@@H](Cc3c[nH]nn3)C(=O)Nc3ccc(C(=O)Nc4ccc(C(=O)Nc5ccc(C(=O)O)c(O)c5OC)c(O)c4OC)nc3)cc2)nc1 [compound 6] | 0.125 (≈ 0.145 µM) | ≤ 0.016 | 0.031 (≈ 0.036 µM) | 0.125 (≈ 0.145 µM) | 2 (≈ 2.32 µM) | ≤ 0.016 | 2 | + | 8.29 |  |  | 
2 | COc1c(NC(=O)c2ccc(NC(=O)c3ccc(NC(=O)[C@H](Cc4c[nH]nn4)NC(=O)c4ccc(NC(=O)c5ccc([N+](=O)[O-])cn5)cc4)cn3)c(OC)c2O)ccc(C(=O)O)c1O [compound 8] | 0.25 (≈ 0.285 µM) | 0.125 (≈ 0.143 µM) | 0.063 (≈ 0.0719 µM) | 0.063 (≈ 0.0719 µM) | 2 (≈ 2.28 µM) | 0.063 (≈ 0.0719 µM) | 8 | + | 8.30 |  |  | 
3 | COc1c(NC(=O)c2ccc(NC(=O)c3ccc(NC(=O)[C@H](Cc4c[nH]nn4)NC(=O)c4ccc(NC(=O)c5ccc6cc(O)ccc6c5)cc4)cn3)c(OC)c2O)ccc(C(=O)O)c1O [compound 10] | 0.063 (≈ 0.0703 µM) | ≤ 0.016 | 0.016 (≈ 0.0179 µM) | 0.031 (≈ 0.0346 µM) | 1 (≈ 1.12 µM) | ≤ 0.016 | 2 | + | 8.15 | 78 |  | 
4 | COc1c(NC(=O)c2ccc(NC(=O)c3ccc(NC(=O)[C@H](Cc4c[nH]nn4)NC(=O)c4ccc(NC(=O)c5ccc6nccnc6c5)cc4)cn3)c(OC)c2O)ccc(C(=O)O)c1O [compound 15] | 0.125 (≈ 0.142 µM) | 0.031 (≈ 0.0352 µM) | 0.031 (≈ 0.0352 µM) | 0.25 (≈ 0.284 µM) | 2 (≈ 2.27 µM) |  |  | + | 7.71 |  |  | 
5 | COc1c(NC(=O)c2ccc(NC(=O)c3ccc(NC(=O)[C@H](Cc4cn[nH]n4)NC(=O)c4ccc(NC(=O)/C(C)=C/c5ccc(O)cc5)cc4)cc3)c(OC)c2O)ccc(C(=O)O)c1O [compound 2, reference compound] |  |  |  |  |  |  |  |  |  |  | − | deactivated
